Results from article PMC2747051 (Biochemistry, 2009).

What was measured:
[1] = tested on: MoeE5 (Streptomyces viridosporus); experiment: anion-exchange HPLC; type: biochemical; conditions: 1 mM UDP-GlcUA, 1 uM enzyme, 20 mM Tris-HCl pH 7.5, 37 °C, 2 h
[2] = tested on: MoeGT1 (Streptomyces viridosporus); experiment: LC/MS conversion time course; type: biochemical; conditions: donor 1 mM, 40 uM compound 7, 800 nM enzyme, 5 mM MgCl2, pH 7.5, 37 °C

## O=C(O)[C@H]1O[C@H](OP(=O)(O)OP(=O)(O)OC[C@H]2O[C@@H](n3ccc(=O)[nH]c3=O)[C@H](O)[C@@H]2O)[C@H](O)[C@@H](O)[C@H]1O [UDP-GalUA]
[1]
  anion-exchange HPLC: we conclude that MoeE5 epimerizes UDP-GlcUA to UDP-GalUA
[2]
  LC/MS conversion time course: showed a clear preference for UDP-GalUA over UDP-GlcUA
